{"source": "paper PMC6272504", "about": "“Inhibitory Effects of Neochamaejasmin B on P-Glycoprotein in MDCK-hMDR1 Cells and Molecular Docking of NCB Binding in P-Glycoprotein” (Molecules, 2015)", "target": "T1, P-glycoprotein (Homo sapiens, UniProt P08183)", "T1 construct": "gene ABCB1", "T1 sequence (P08183 whole entry)": "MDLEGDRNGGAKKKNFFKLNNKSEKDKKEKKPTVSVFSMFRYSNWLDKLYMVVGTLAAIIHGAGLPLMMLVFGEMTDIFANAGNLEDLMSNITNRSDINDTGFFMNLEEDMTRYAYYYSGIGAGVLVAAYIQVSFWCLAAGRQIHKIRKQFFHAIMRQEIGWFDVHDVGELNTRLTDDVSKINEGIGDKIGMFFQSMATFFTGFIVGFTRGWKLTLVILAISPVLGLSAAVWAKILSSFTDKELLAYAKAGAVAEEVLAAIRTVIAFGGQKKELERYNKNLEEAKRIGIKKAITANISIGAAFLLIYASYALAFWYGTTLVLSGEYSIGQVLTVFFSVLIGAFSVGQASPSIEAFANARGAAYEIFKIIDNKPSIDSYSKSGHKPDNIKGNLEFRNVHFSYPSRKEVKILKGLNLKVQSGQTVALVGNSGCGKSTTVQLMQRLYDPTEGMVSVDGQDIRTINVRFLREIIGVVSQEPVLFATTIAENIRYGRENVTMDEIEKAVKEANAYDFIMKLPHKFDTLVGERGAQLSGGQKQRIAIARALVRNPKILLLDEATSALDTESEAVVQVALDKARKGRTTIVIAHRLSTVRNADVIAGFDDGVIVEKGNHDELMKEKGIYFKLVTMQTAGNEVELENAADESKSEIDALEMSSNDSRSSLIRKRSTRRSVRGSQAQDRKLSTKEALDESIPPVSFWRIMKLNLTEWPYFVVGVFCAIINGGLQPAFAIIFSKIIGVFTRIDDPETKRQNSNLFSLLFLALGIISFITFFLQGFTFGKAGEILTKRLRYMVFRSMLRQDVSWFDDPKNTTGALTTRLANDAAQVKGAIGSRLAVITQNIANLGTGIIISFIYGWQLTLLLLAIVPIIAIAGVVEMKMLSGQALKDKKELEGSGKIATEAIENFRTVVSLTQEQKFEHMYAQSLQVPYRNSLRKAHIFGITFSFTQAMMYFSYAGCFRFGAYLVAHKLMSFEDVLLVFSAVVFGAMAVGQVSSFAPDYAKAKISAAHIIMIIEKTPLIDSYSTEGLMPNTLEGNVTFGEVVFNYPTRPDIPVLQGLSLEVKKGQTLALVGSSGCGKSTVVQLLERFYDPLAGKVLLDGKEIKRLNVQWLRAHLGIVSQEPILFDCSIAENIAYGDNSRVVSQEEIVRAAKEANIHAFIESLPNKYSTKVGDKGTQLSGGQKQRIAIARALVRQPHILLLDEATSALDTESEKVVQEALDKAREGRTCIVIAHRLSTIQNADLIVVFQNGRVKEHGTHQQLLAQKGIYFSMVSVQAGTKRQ", "experiment": "Rhodamine-123 accumulation kinetics (Lineweaver-Burk) and bidirectional transport in MDCK-hMDR1 cells", "type": "cell-based"}
{"compound": "O=C1c2c(O)cc(O)cc2O[C@H](c2ccc(O)cc2)[C@@H]1[C@@H]1C(=O)c2c(O)cc(O)cc2O[C@H]1c1ccc(O)cc1", "note": "[NCB, Neochamaejasmin B]", "values": [{"measurement": "Ki", "result": 45.2, "unit": "µM"}]}
